Measured values as given in patent US6348457B1, “4-[3-benzofuranyl]piperidinyl and 4-[3-benzothienyl]piperidinyl derivatives” (Janssen Pharmaceutica N.V., priority 1922, dated 2002).

Assays:
[1] = test system: Female Wistar rats; test: Reserpine Tremor Test; assay type: in vivo, rat; conditions: route sc, dose 2.5 mg/kg, 90 min before testing; reserpine 2 mg/kg iv 60 min before testing; 15-min session; number of rats out of rats tested
Description: Female Wistar rats weighing 200-220 g were used. These test animals were food deprived for 24 hours. Said rats were pretreated orally (po) or subcutaneously (sc) with a test compound at 90 minutes before testing. This pretreatment was followed by an intravenous injection of 2 mg/kg reserpine at 60 minutes before testing. Two control groups of 20 rats each were included in the experiment. The first control group consisted of rats that were only treated with a saline solution and the second control group consisted of animals which only received a saline reserpine solution. At the start of the test, the rats were individually placed in specially designed test cages and tremor activity was measured continuously during a 15-min test session. These test cages consisted of a plexiglass chamber. The floor of the test cage consisted of a plexiglass plate which was centered underneath the cage. […] The floor plate rested at its four corners on a rubber point of support. Two pieces of piezo-film were tied up next to each other underneath the middle of the floor plate. Said piezo-films were connected to an amplifier. The test cage was situated in a sound and light attenuating out box, being constantly illuminated and air-ventilated. The piezo-electric response, produced by deformation of the cage floor was amplified by an individual amplifier for each piezo-film separately. […]

- melting point: 159.8 °C
SMILES: Cc1nc2ccccn2c(=O)c1CCN1CCC(c2coc3cc(F)ccc23)CC1 [Co. No. 1, 3-[2-[4-(6-fluoro-3-benzofuranyl)-1-piperidinyl]ethyl]-2-methyl-4H-pyrido-[1,2-a]pyrimidin-4-one]
- rats showing a tremor activity below 35 counts [1]: 3
